Data set [1] concerns SH-SY5Y human neuroblastoma cells. Put plainly: Toxicity: LDH activity release in SH-SY5Y cells. In kind it is cell-based. The settings on record: 24 h; for Maximum concentration tested for toxicity: increasing concentrations from 1 μM up to 1 mM. The method, then: The potential effects on cell viability of the assayed compounds are assayed in SH-SY5Y human neuroblastoma cells, by quantification of Lactate dehydrogenase (LDH) activity release. SH-SY5Y human neuroblastoma cells are seeded into 96-well culture plates at 10^4 cells/well. The medium is then removed and the cells incubated with different concentrations of the compounds during 24 h. The compounds are tested at increasing concentrations starting from 1 μM, in fresh culture medium, in order to find the minimum concentration at which the compounds are toxic, up to a maximum of 1 mM. After 24 h, the medium is removed and cells attached to the bottom of the well are lysed by adding 50 μl of Krebs-Hepes; Triton X-100 1% during 5 minutes at room temperature. For LDH release quantification, the Roche cytotoxicity detection kit (Cat.
No. 11 644 793 001) is used. The LDH activity is measured by its absorbance at 492 nm with reference wavelength 620 nm.
In Table 1, for each compound the maximum concentration at which toxicity was tested is indicated in the second column. In the third column, it is indicated whether at this maximum concentration the compound was toxic or not. All the compounds, with the exception of Compound 3, resulted non-toxic at the concentration for which activity was found, in most of the cases even at a 1000-fold concentration. Thus, the compounds may be considered non-toxic.

Data set [2] shares this test system. The experiment in a line: Protection against hydrogen peroxide-induced cell death (LDH). Particulars: compound 1 h before H2O2 100 μM, 24 h; for minimal effective concentration: Homo sapiens, SH-SY5Y, read-out: Protect. H2O2 (minimum concentration for which protection was determined). It is filed as cell-based. The method, then:
The aim of this assay is to determine the neuroprotective effect of the compounds of formula (I), when human neuroblastoma cells are exposed to oxidative stress induced by hydrogen peroxide, which is highly deleterious to the cell and its accumulation causes oxidation of cellular targets such as DNA, proteins, and lipids leading to mutagenesis and cell death.
SH-SY5Y human neuroblastoma cells are seeded into 96-well culture plate at a density of 10^4 cells/well. Cells are exposed to different concentrations of the compound one hour before the treatment with H2O2 100 μM during 24 h. 5 mM N-acetylcysteine (NAC), a known anti-oxidant agent was used as a positive control, and preincubated 1 hour before the treatment with H2O2. After 24 h, the medium is removed and cells attached to the bottom of the well are lysed by adding 50 μl of Triton X-100 1% in Krebs-Hepes during 5 minutes at room temperature. For LDH release quantification, Roche cytotoxicity detection kit (Cat. No. 11 644 793 001) was used.

Data set [3] shares this test system. The experiment in a line: Protection against 6-OHDA-induced cell death, condition B (no fetal bovine serum). Particulars: preincubated 1 hour, 6-OHDA 50 μM 24 hours, read-out: Protect. 6-OHDA (−FBS) (minimum concentration with neuroprotective effect). It is filed as cell-based. An excerpt:
The aim of this experiment is to determine the protective effect of the compounds of formula (1) against the toxicity caused by 6-OHDA. This toxin induces a cell death similar to which occurs in Parkinson's disease, destroying dopaminergic neurons (“MPTP and 6-hydroxydopamine-induced neurodegeneration as models for Parkinson's disease: neuroprotective strategies”; Grunblatt E, et al.; J Neurol. 2000 Apr; 247 Suppl 2:II95-102).
Two or three days before the experiment, the SH-SY5Y human neuroblastoma cells are seeded into 96-well culture plate at a density of 10^4 cells/well. Cells are exposed to the treatment with 6-OHDA and, finally, cell death is measured by LDH quantification. As positive control we used NAC.
• B) NAC and the compound of formula (I) are preincubated during 1 hour before the treatment with 6-OHDA 50 μM during 24 hours. The assay is performed in a medium without any fetal bovine serum.
For each compound the minimum concentration of compound of formula (I) at which a neuroprotective effect is shown.

In data set [4] the test system is Aβ (1-40) secretion by CHO7W cells (stably transfected with human APP751 wt cDNA). Put plainly: Inhibition of Aβ(1-40) secretion (ELISA, cellular supernatants). Particulars: Aβ 1-40 ELISA. In kind it is cell-based. The source says:
To quantitate Aβ secretion ELISA-based method was used. The assay consists in detection of antigen by selective monoclonal anti-Aβ-antibodies at two different epitopes forming a “Sandwich-complex”, that is detected by colorimetric measure due to the binding of a secondary antibody conjugated with peroxidase that catalyses the conversion of a substrate or chromogen, TMB, into a coloured product, directly proportional to the peptide quantity in the sample. The Aβ production has been analyzed by ELISA, using a colorimetric commercial kit: Immunoassay Kit Human β Amyloid 1-40 (Biosource).
Aβ (1-40) were quantified from cellular supernatants. An APP-transfected cell line has been employed for the experiments: CHO7W (stably transfected with human APP751 wt cDNA). The cells were grown in a culture medium consisting of DMEM supplemented with 2% Fetal bovine serum, 1% penicillin-streptomycin, 1% L-glutamine and 200 μg/ml G418. Cells are seeded in 96-well culture microplate, at 5000 cells/well and treatment with different compounds at different concentrations is performed 24 hour after seeding.
OM99-2 (H-5108, Bachem), a BACE inhibitor, was used as Aβ secretion reduction positive control in all the Aβ secretion studies. The cells were treated with this compound at 3 μM concentration, culture media were collected at 24 hours.
Background: ELISA stands for enzyme-linked immunosorbent assay.

The nature of data set [5]: Chelating ability with Fe(II) (absorbance spectra). It is filed as physicochemical. The settings on record: for Formation constant: Fe (II) complex 1:3 (ML3); for Dissociation grade / Stoichiometry / ε approx.: Fe (II) complex; for Ability to complex Fe (II) (spectrum of mixture vs sum of individual spectra): PBS 10 mM, pH 7.4 or 8, FIGS. 2-5. The method, then: FIG. 2 is an absorbance spectrum of the complex Fe(II)-Compound 4. Concentration of Fe(II) and Compound 4, 200 μM, PBS 10 mM, pH 8.
FIG. 3 is an absorbance spectrum of the complex Fe(II)-Compound 7. Concentration of Fe(II) and Compound 7 , 400 μM, PBS 10 mM, pH 8.
FIG. 4 is an absorbance spectrum of the complex Fe(II)-Compound 8. Concentration of Fe(II) and Compound 8, 200 μM, PBS 10 mM, pH 7.4.
FIG. 5 is an absorbance spectrum of the complex Fe(II)-Compound 10. Concentration of Fe(II) and Compound 10, 100 μM, PBS 10 mM, pH 7.4.
Therefore, it may be observed that the compounds of formula (I) have a high affinity to Fe (II) in comparison to the rest of metalic ions tested.

Data set [6] can be described thus: Chelating ability with Zn (II) (absorbance spectra). In kind it is physicochemical. Particulars: for Ability to complex Zn(II): PBS 10 mM, pH 7.4, FIGS. 8-11; for Dissociation grade / Stoichiometry / ε approx.: Zn (II) complex, pH 7.4, expecting time 24 h (4, 7) or 4 h (8, 10). The procedure: FIG. 8 represents the absorbance spectra of the complex Zn(II)-Compound 4. Concentration 200 μM, PBS 10 mM, pH 7.4.
Concentration 180 μM, PBS 10 mM, pH 7.4.
Concentration 100 μM, PBS 10 mM, pH 7.4.
Concentration 20 μM, PBS 10 mM, pH 7.4. […]

Where [7] appears, read: pH 8*, expecting time 30 min (4) or 60 min (7).
The mark [8] stands for this setting: pH 7.4, expecting time Immediate.
The mark [9] stands for this setting: Zn (II) complex 1:2 (ML2), pH 7.4, expecting time 24 h (7) or 4 h (8, 10).

Experimental findings from patent publication US8592446B2, “[1,10]-phenanthroline derivatives for the treatment of neurodegenerative or haematological diseases” (Noscira, S.A., priority 2007, dated 2013) are described below.

Structures are written as SMILES.

Consider `CSc1cc(/C=N/O)nc2c1ccc1cccnc12` [Compound 4, 4-Methylsulfanyl-[1,10]phenanthroline-2-carbaldehyde oxime], for which the “Maximum concentration tested for toxicity” value in data set [1] is reported as 1 mM. In addition, in data set [1] (at 1 mM), the “Toxic at maximum concentration tested (Yes/No)” value (“Toxic … (Yes/No)” below) is “Yes”. The minimal effective concentration in data set [2] is 0.05 µM. In addition, the minimal effective concentration in data set [3] stood at 0.5 µM. Further, the “Inhibition secretion beta-amyloid (minimum concentration)” value (“Inhibition secretion beta-amyloid” for short) in data set [4] is 0.05 mM. In data set [5] (setting [7]), the Formation constant is 8.2 ± 0.5 · 10^12, the Dissociation grade was found to be 0.147 ± 0.002, the Stoichiometry was 1:3 (ML3) and the ε approx. was approximately 1800 L/mol/cm. Also, the “Ability to complex Fe (II) (spectrum of mixture vs sum of individual spectra)” value in data set [5] is given as “able to complex the Fe (II)”. In data set [6], the “Ability to complex Zn(II)” value was “complexed with Zn(II) to an extent”, the Dissociation grade is on record as 46 ± 7, the Stoichiometry is listed as 1:1 (ML) and the ε approx. was approximately 1000 L/mol/cm. Further, the Formation constant in data set [6] (Zn (II) complex 1:1 (ML), pH 7.4, expecting time 24 h) was 2.2 ± 0.6 · 10^4 l/mol.
For `CCN(CC)CCOc1cc(/C=N/O)nc2c1ccc1cccnc12` [Compound 10, 4-(2-Diethylamino-ethoxy)-[1,10]phenanthroline-2-carbaldehyde oxime], the “Maximum concentration tested for toxicity” value in data set [1] was determined as 0.001 mM. In addition, the “Toxic … (Yes/No)” value in data set [1] (at 1 μM) is on record as “Yes”. For the same compound, in data set [2], the “Protect. H2O2 (minimum concentration for which protection was determined)” value came to 50 nM. Further, the minimal effective concentration in data set [3] is 0.5 µM. Further, the “Inhibition secretion beta-amyloid” value in data set [4] stood at 1 mM. Further, in data set [5] (setting [8]), the Formation constant is reported as 5.0 ± 1.0 · 10^17, the Dissociation grade was 0.019 ± 0.004, the Stoichiometry is given as 1:3 (ML3) and the ε approx. was approximately 6700 L/mol/cm. In addition, in data set [5], the “Ability to complex Fe (II) (spectrum of mixture vs sum of individual spectra)” value was “able to complex the Fe (II)”. Also, in data set [6], the “Ability to complex Zn(II)” value is listed as “complexed with Zn(II) to an extent”, the Dissociation grade is on record as 3.7 ± 0.6, the Stoichiometry is reported as 1:2 (ML2) and the ε approx. was approximately 9400 L/mol/cm. Also, the Formation constant in data set [6] (setting [9]) is given as 1.7 ± 0.4 · 10^13 l^2/mol^2.
As to `COCCOc1cc(/C=N/O)nc2c1ccc1cccnc12` [Compound 8, 4-(2-Methoxy-ethoxy)-[1,10]phenanthroline-2-carbaldehyde oxime], the “Maximum concentration tested for toxicity” value in data set [1] came out at 1 mM. In addition, the “Toxic … (Yes/No)” value in data set [1] (at 1 mM) was “No”. The “Protect. H2O2 (minimum concentration for which protection was determined)” value in data set [2] is 50 nM. Also, the minimal effective concentration in data set [3] worked out at 0.5 µM. Further, the “Inhibition secretion beta-amyloid” value in data set [4] amounted to 1 mM. In data set [5] (setting [8]), the Formation constant is 4.0 ± 1.3 · 10^17, the Dissociation grade is 0.022 ± 0.006, the Stoichiometry is 1:3 (ML3) and the ε approx. is approximately 1600 L/mol/cm. Moreover, the “Ability to complex Fe (II) (spectrum of mixture vs sum of individual spectra)” value in data set [5] is on record as “able to complex the Fe (II)”. Besides, in data set [6], the “Ability to complex Zn(II)” value is recorded as “complexed with Zn(II) to an extent”, the Dissociation grade stood at 7.7 ± 0.6, the Stoichiometry is recorded as 1:2 (ML2) and the ε approx. was approximately 7100 L/mol/cm. Also, the Formation constant in data set [6] (setting [9]) was 1.4 ± 0.6 · 10^11 l^2/mol^2.
Take `CC(C)Sc1cc(/C=N/O)nc2c1ccc1cccnc12` [Compound 7, 4-Isopropylsulfanyl-[1,10]phenanthroline-2-carbaldehyde oxime]: the “Maximum concentration tested for toxicity” value in data set [1] was found to be 1 mM. The “Toxic … (Yes/No)” value in data set [1] (at 1 mM) is reported as “Yes”. The minimal effective concentration in data set [2] is 0.05 µM. Also, in data set [3], the minimal effective concentration is 0.5 µM. In data set [4] (read-out: Inhibition secretion beta-amyloid (minimum concentration)), the minimal effective concentration stood at 1 nM. Moreover, in data set [5] (setting [7]), the Formation constant is reported as 2.0 ± 0.6 · 10^15, the Dissociation grade was determined as 0.023 ± 0.002, the Stoichiometry is given as 1:3 (ML3) and the ε approx. is approximately 280 L/mol/cm. The “Ability to complex Fe (II) (spectrum of mixture vs sum of individual spectra)” value in data set [5] was “able to complex the Fe (II)”. Also, in data set [6], the “Ability to complex Zn(II)” value is “complexed with Zn(II) to an extent”, the Dissociation grade is 13.4 ± 0.7, the Stoichiometry is on record as 1:2 (ML2) and the ε approx. is approximately 840 L/mol/cm. Moreover, the Formation constant in data set [6] (setting [9]) is on record as 2.2 ± 0.6 · 10^10 l^2/mol^2.
